Experimental data reported in PMC11841054 (Journal of Bacteriology, 2025).

Legend:
[1] = target: T1, GlnA3Mt (Mycobacterium tuberculosis, UniProt O07752)
T1 construct: gene glnA3

[2] = target: T2, GlnA3Sc (Streptomyces coelicolor, UniProt Q9KZC7); assay: GS activity assay, phosphate release; type: biochemical; details: 50 mM substrate; glutamate and ATP co-substrates
T2 construct: gene glnA3; His-tagged (pYT/his-glnA3, pYT9 derivative) from E. coli BL21
T2 sequence (Q9KZC7 whole entry): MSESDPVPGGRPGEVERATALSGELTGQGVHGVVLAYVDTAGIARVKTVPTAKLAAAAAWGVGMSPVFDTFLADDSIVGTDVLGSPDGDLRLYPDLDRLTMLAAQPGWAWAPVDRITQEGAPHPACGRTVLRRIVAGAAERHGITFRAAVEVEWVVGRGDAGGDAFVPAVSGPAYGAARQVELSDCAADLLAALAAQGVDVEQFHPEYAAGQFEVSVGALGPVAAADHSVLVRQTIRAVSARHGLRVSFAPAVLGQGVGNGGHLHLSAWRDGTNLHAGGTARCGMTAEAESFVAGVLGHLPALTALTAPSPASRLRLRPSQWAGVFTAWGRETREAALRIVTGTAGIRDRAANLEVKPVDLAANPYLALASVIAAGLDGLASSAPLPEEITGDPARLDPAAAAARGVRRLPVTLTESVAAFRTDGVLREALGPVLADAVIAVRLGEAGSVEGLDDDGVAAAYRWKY

T1 sequence (O07752 1-450): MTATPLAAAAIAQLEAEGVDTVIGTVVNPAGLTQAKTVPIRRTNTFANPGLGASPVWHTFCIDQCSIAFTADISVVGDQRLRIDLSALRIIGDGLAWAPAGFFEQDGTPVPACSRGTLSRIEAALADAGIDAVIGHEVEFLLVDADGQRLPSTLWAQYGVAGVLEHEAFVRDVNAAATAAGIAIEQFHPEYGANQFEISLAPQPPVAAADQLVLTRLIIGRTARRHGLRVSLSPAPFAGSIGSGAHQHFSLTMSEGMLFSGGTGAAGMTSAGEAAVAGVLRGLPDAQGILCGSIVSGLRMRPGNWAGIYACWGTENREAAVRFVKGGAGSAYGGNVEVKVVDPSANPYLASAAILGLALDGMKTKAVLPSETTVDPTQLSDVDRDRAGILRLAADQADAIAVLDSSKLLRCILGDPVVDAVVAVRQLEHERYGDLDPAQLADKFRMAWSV

Row | SMILES | GS activity assay, phosphate release; HPLC/ESI-MS of gamma-glutamylspermidine [1] | GS activity assay, phosphate release [2]
1 | NCCCCNCCCN [spermidine] | the highest activity was observed with spermine and spermidine | possesses the highest turnover rate when using spermine or spermidine as substrates
2 | NCCCNCCCCNCCCN [spermine] | – | possesses the highest turnover rate when using spermine or spermidine as substrates
